Experimental data from patent US20250137054A1, “COMPOSITION AND METHOD FOR EVALUATING RESPONSIVENESS OF EDARAVONE” (MITSUBISHI TANABE PHARMA CORPORATION, priority 2022, published 2025).

Tested on: disease model cells (neurons derived from the 1464R cell line forcibly expressing wild-type and mutant TDP-43)
Assay: RNA-seq gene expression analysis in disease model cells
Type: cell-based, rat
Experimental: Using both vectors (a) and (b), the differentiated cell line in the infection medium was infected with adenovirus at a multiplicity of infection of 50, and cultured for 24 hours. As a result, neurons derived from the 1464R cell line, in which both wild-type and mutant TDP-43 were forcibly expressed intracellularly (hereinafter, also referred to as disease model cells), were obtained.
In the present evaluation, a 6-well plate treated with poly-L-lysine was used, cells were seeded at a density of 1×10^6 cells per well, cultured under the conditions of (1) of Example 1, and differentiated cells were used.
(3) Group 3 (TDP-43+EA exposed group; represented as ‘Group 3’ in FIG. 4 and FIGS. 7-11): After preparing the disease model cells expressing TDP-43, the cells were cultured in differentiation medium free of Eda but containing EA (final concentration 20 μmol/L) for 24 hours. This experimental group forcibly expresses TDP-43 and simulates conditions where the target has a neurodegenerative disease and remains untreated.
(4) Group 4 (TDP-43+EA+Eda exposed group; represented as ‘Group 4’ in FIG. 4 and FIGS. 7-11): After preparing the disease model cells expressing TDP-43, the cells were cultured in differentiation medium containing Eda (final concentration 50 μmol/L) but free of EA for 24 hours. After that, EA (final concentration 20 μmol/L) was further added, and the cells were further cultured for an additional 24 hours. This experimental group simulates conditions where the target with a neurodegenerative disease is administered or exposed to Eda.
After the culture was completed, cell pellets containing 1×10^6 or more cells were obtained from the experimental groups (1)-(4). Total RNA was extracted from these cell pellets using NucleoSpin RNA (manufactured by Macherey-Nagel) according to a product protocol.
Using the extracted total RNA (1.0 ng) as a template, double-stranded cDNA was synthesized using the SMART method using the SMART-Seq v4 Ultra (registered trademark) Low Input RNA Kit for Sequencing (manufactured by Clontech) according to a product protocol.
Next, using the NovaSeq6000 system (NovaSeq6000 S4 reagent kit, NovaSeq Xp4 lane kit, and NovaSeq control software (version 1.6.0); all manufactured by Illumina), sequences of the cDNA library were determined according to a product protocol.
Next, using the DRAGEN Bio-IT platform software (version 3.6.3, manufactured by Illumina) and referring to the rat genome assembly (version 6.0, top-level) and transcript annotation (release 101) obtained from the Ensembl database, types and abundance of genes were identified from the 150-base sequence information contained in the FASTQ files mentioned above.
An RNA expression level (TPM) of a transcription product i measured from the cDNA library of the experimental groups was calculated based on alignment to the rat genome and transcription product annotation from the Ensembl database, according to the following equation (A).
Differential expression analysis was performed using DESeq2 (a package for two-group comparison) in the statistical analysis software R (version 3.6.0) to calculate a log 2 ratio of RNA expression levels and a significance test. The log 2 ratio is a value expressed as “log 2 ([expression level of a first measurement target]/[expression level of a second measurement target]).”
The significance test was performed based on a p-value calculated by Wald test with multiple testing correction based on the Benjamini-Hochberg method (BH method).
In the present analysis, a gene with an absolute log 2 ratio of 1 or more (expression change ratio of 2.0 times or more or 0.50 times or less) and a p-value of 0.01 or less from the Wald test between any two groups was identified as a “gene with a change in expression level” (differentially expressed gene; DEG).
The X-axis represents a first principal component, and the Y-axis represents a second principal component, with their respective contribution rates expressed as percentages. […]

[1] = Group 3 (TDP43 + EA) vs Group 2 (Eda)
[2] = Group 4 (TDP43 + EA + Eda) vs Group 1 (control)
[3] = Group 4 (TDP43 + EA + Eda) vs Group 2 (Eda)
[4] = Group 4 (TDP43 + EA + Eda) vs Group 3 (TDP43 + EA)
[5] = Group 4 (TDP43+EA+Eda 50 μmol/L) vs Group 3 (TDP43+EA), RNA expression
[6] = in the presence of edaravone, TDP-43 mutant protein present

CC1=NN(c2ccccc2)C(=O)C1 [edaravone, 5-methyl-2-phenyl-2,4-dihydro-3H-pyrazol-3-one]
number of downregulated genes (DEGs) [1]: 478 | number of upregulated genes (DEGs) [1]: 876 | number of downregulated genes (DEGs) [2]: 1,095 | number of upregulated genes (DEGs) [2]: 1,654 | number of downregulated genes (DEGs) [3]: 1,130 | number of upregulated genes (DEGs) [3]: 1,661 | number of downregulated genes (DEGs) [4]: 260 | number of upregulated genes (DEGs) [4]: 169 | gene expression profile (principal component analysis of RNA-seq data) (Group 4 (TDP43 + EA + Eda) vs Group 3 (TDP43 + EA), FIG. 6): distinctly different gene expression profiles | Group 4 to Group 3 log2 ratio: Acsl6 (acyl-CoA synthetase long-chain family member 6) [5]: −1.582 | Group 4 to Group 3 log2 ratio: Cebpb (CCAAT/enhancer binding protein beta) [5]: 1.661 | Group 4 to Group 3 log2 ratio: Glrx (glutaredoxin) [5]: −1.262 | Group 4 to Group 3 log2 ratio: Ho-1 (hemeoxygenase 1) [5]: 1.755 | Group 4 to Group 3 log2 ratio: HspaS (heat shock protein family A (Hsp70) member 8) [5]: 1.151 | Group 4 to Group 3 log2 ratio: Hsph1 (heat shock protein family H (Hsp110) member 1) [5]: 1.027 | Group 4 to Group 3 log2 ratio: Mt1 (metallothionein 1) [5]: −1.392 | Group 4 to Group 3 log2 ratio: Nefl (neurofilament light) [5]: −1.778 | Group 4 to Group 3 log2 ratio: Nfe2l2 (nuclear factor, erythroid 2-like 2) [5]: 0.923 | Group 4 to Group 3 log2 ratio: Nup43 (nucleoporin 43) [5]: −0.888 | Group 4 to Group 3 log2 ratio: Pik3cb [5]: 1.157 | Group 4 to Group 3 log2 ratio: Plcg2 (phospholipase C, gamma 2) [5]: 0.881 | Group 4 to Group 3 log2 ratio: Plpp3 (phospholipid phosphatase 3) [5]: 1.307 | Group 4 to Group 3 log2 ratio: Ptgds (prostaglandin D2 synthase) [5]: 0.954 | Group 4 to Group 3 log2 ratio: Sqstm1 (sequestosome 1) [5]: 1.225 | Group 4 to Group 3 log2 ratio: Txndc2 (thioredoxin domain containing 2) [5]: 1.153 | log 2 ratio Group 4/Group 3: Alpl (ALPL) (Group 4 (TDP43+EA+Eda 50 μmol/L) vs Group 3 (TDP43+EA), RNA expression, DESeq2): −1.098 | expression level of a gene product of ALPL [6]: decreases | expression level of a gene product of ASF1B [6]: decreases | expression level of a gene product of DCTD [6]: decreases | expression level of a gene product of FAIM2 [6]: increases | expression level of a gene product of FCSK [6]: decreases | expression level of a gene product of HAUS4 [6]: decreases | expression level of a gene product of ITGB4 [6]: decreases | expression level of a gene product of KAZALD1 [6]: decreases | expression level of a gene product of MAST1 [6]: decreases | expression level of a gene product of MT2A [6]: decreases | expression level of a gene product of NTM [6]: decreases | expression level of a gene product of PTTG1 [6]: decreases | expression level of a gene product of SBK1 [6]: decreases | expression level of a gene product of SCN2A [6]: decreases | expression level of a gene product of UBE2L6 [6]: decreases
